# Earlier results, collected in patent publication US20230364118A1, “RIBITOL TREATMENT” (priority 2020, published 2023).
# Settings: rabbits; cited from earlier work
structure (smiles),measurement,value
O=C[C@H](O)[C@H](O)[C@H](O)CO [D-ribose],half-life,14 to 24 min
